Data: patent US11236068B2, “Fused ring compounds” (Genentech, Inc., priority 2018, dated 2022)

biological target: K-Ras G12C (Homo sapiens (Human), UniProt P01116, G12C); test: Western blot assay for in cell alkylation of K-Ras G12C (HCC1171 cells); type: cell-based; conditions: 18 hours at 37° C., 7 point dose response
Description: HCC1171 cells were maintained in RPMI1640 supplemented with 10% FBS. Cells were plated in a 96-well plate at 20,000 cells/well and the following day compounds were added to the cells. After 18 hours at 37° C., cells were lysed in RIPA buffer (Sigma RO278) with 0.5% SDS and protease/phosphatase inhibitor cocktail. After through mixing to enable complete lysis, the lysates were cleared by centrifugation before 20 µl was transferred from each well and combined with loading buffer and reducing agent. After heating for 10 minutes at 95° C., […] of each sample was loaded onto a 4-20% Tris-Glycine gel and electrophoresed at 110V for 165 minutes in SDS-PAGE running buffer. Gels were transferred to a nitrocellulose membrane, blocked for 1 hour and stained overnight at 4° C. with primary antibody against K-Ras (polyclonal Proteintech 12063-1-AP). The membrane was then washed thoroughly and counterstained with anti-rabbit IRDye 800CW (LI-COR 926-32211) for one hour at room temperature. After final washes, the membrane was imaged on a LI-COR Odyssey CLx at medium resolution. […] To quantify this affect, the LICOR software was used to draw a rectangle over alkylated and unalkylated bands for each well and measured the total fluorescent intensity (FI) in each of these bands. The following formula was then used to calculate % alkylation: FI(alkylated)/(FI(alkylated)+FI(unalkylated))*100 for each well.
A 7 point dose response curve was used to determine the IC50 for each compound. Cell alkylation data are presented below in Table 3.

K-Ras G12C, sequence (P01116 other isoform, or with tags, fused parts or gaps G12C): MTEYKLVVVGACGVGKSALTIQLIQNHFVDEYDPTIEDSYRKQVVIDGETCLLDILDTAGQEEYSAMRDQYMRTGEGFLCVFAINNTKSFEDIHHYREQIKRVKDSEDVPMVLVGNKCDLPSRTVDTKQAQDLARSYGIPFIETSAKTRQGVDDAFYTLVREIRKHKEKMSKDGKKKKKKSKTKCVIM

Going from `C=CC(=O)N1CCN(c2ncnc3cc(-c4nc(N)cc5ccccc45)c(Cl)cc23)CC1` [Example 1, 1-[4-[7-(3-amino-1-isoquinolyl)-6-chloro-quinazolin-4-yl]piperazin-1-yl]prop-2-en-1-one] to `C=CC(=O)N1CCN(c2ncnc3cc(-c4nc(N)cc5cnccc45)c(Cl)cc23)CC1` [Example 4, 1-[4-[7-(3-amino-2,6-naphthyridin-1-yl)-6-chloro-quinazolin-4-yl]piperazin-1-yl]prop-2-en-1-one], the EC50 rises from 560 nM to over 30000 nM. The first is the more potent here.

Going from `C=CC(=O)N1CCN(c2ncnc3cc(-c4ncccc4C)c(Cl)cc23)CC1` [Example 2, 1-[4-[6-chloro-7-(3-methyl-2-pyridyl)quinazolin-4-yl]piperazin-1-yl]prop-2-en-1-one] to `C=CC(=O)N1CCN(c2ncnc3cc(-c4nc(N)ccc4C)c(Cl)cc23)CC1` [Example 15, 1-(4-(7-(6-amino-3-methylpyridin-2-yl)-6-chloroquinazolin-4-yl)piperazin-1-yl)prop-2-en-1-one], the EC50 falls from 16000 nM to 2800 nM (5.7-fold). The second is the more potent here.

Going from `C=CC(=O)N1CCN(c2ncnc3cc(-c4nc(N)cc5cccnc45)c(Cl)cc23)CC1` [Example 3, 1-[4-[7-(6-amino-1,7-naphthyridin-8-yl)-6-chloro-quinazolin-4-yl]piperazin-1-yl]prop-2-en-1-one] to `C=CC(=O)N1CCN(c2ncnc3cc(-c4nc(N)cc5c(Cl)cccc45)c(Cl)cc23)CC1` [Example 5, 1-[4-[7-(3-amino-5-chloro-1-isoquinolyl)-6-chloro-quinazolin-4-yl]piperazin-1-yl]prop-2-en-1-one], the EC50 falls from 21000 nM to 2800 nM (7.5-fold).

First: C=CC(=O)N1CCN(c2ncnc3cc(-c4nc(N)cc5cc(OC)ccc45)c(Cl)cc23)CC1 [Example 6, 1-[4-[7-(3-amino-6-methoxy-1-isoquinolyl)-6-chloro-quinazolin-4-yl]piperazin-1-yl]prop-2-en-1-one]
Second: C=CC(=O)N1CCN(c2ncnc3cc(-c4nc(N)cc(C)c4F)c(Cl)cc23)CC1 [Example 11, 1-(4-(7-(6-amino-3-fluoro-4-methylpyridin-2-yl)-6-chloroquinazolin-4-yl)piperazin-1-yl)prop-2-en-1-one]
The EC50 of the first is 2.1-fold higher: 10000 nM for the first, 4700 nM for the second.

Compared with `C=CC(=O)N1CCN(c2nc(NC[C@@H](F)C(C)(C)O)nc3cc(-c4nc(N)cc(C)c4F)c(Cl)cc23)CC1` [Example 12, (R)-1-(4-(7-(6-amino-3-fluoro-4-methylpyridin-2-yl)-6-chloro-2-((2-fluoro-3-hydroxy-3-methylbutyl)amino)quinazolin-4-yl)piperazin-1-yl)prop-2-en-1-one], `C=CC(=O)N1CCN(c2nc(NC)nc3cc(-c4nc(N)cc(C)c4C(F)(F)F)c(Cl)cc23)CC1` [Example 31, 1-(4-[7-[6-amino-4-methyl-3-(trifluoromethyl)pyridin-2-yl]-6-chloro-2-(methylamino)quinazolin-4-yl]piperazin-1-yl)prop-2-en-1-one] is 40-fold lower in EC50: 8100 nM for the first, 200 nM for the second.

Compared with `C=CC(=O)N1CCN(c2ncnc3cc(-c4nc(N)cc(C)c4C)c(Cl)cc23)CC1` [Example 13, 1-(4-(7-(6-amino-3,4-dimethylpyridin-2-yl)-6-chloroquinazolin-4-yl)piperazin-1-yl)prop-2-en-1-one], `C=CC(=O)N1CCN(c2ncnc3cc(-c4nc(N)cc(C)c4Cl)c(Cl)cc23)CC1` [Example 14, 1-(4-(7-(6-amino-3-chloro-4-methylpyridin-2-yl)-6-chloroquinazolin-4-yl)piperazin-1-yl)prop-2-en-1-one] is 3.2-fold lower in EC50: 1300 nM for the first, 400 nM for the second.

`C=CC(=O)N1CCN(c2ncnc3cc(-c4nc(NC(C)=O)ccc4C)c(Cl)cc23)CC1` [Example 16, N-(6-[6-chloro-4-[4-(prop-2-enoyl)piperazin-1-yl]quinazolin-7-yl]-5-methylpyridin-2-yl)acetamide] and `C=CC(=O)N1CCN(c2ncnc3cc(-c4nc(NC(=O)C5CC5)cc5ccccc45)c(Cl)cc23)CC1` [Example 36, N-(1-(4-(4-acryloylpiperazin-1-yl)-6-chloroquinazolin-7-yl)isoquinolin-3-yl)cyclopropanecarboxamide] are within 1.5-fold of each other in EC50: 8200 nM for the first, 5500 nM for the second.

First: C=CC(=O)N1CCN(c2ncnc3cc(-c4nc(N)ccc4C(F)(F)F)c(N4CCC4)cc23)CC1 [Example 20, 1-[4-[7-[6-amino-3-(trifluoromethyl)-2-pyridyl]-6-(azetidin-1-yl)quinazolin-4-yl]piperazin-1-yl]prop-2-en-1-one]
Second: C=CC(=O)N1CCN(c2ncnc3cc(-c4nc(N)ccc4C(F)(F)F)c(Cl)cc23)CC1 [Example 35, 1-(4-[7-[6-amino-3-(trifluoromethyl)pyridin-2-yl]-6-chloroquinazolin-4-yl]piperazin-1-yl)prop-2-en-1-one]
The EC50 of the first is 5.1-fold higher: 2300 nM for the first, 450 nM for the second.

Going from `C=CC(=O)N1CCN(c2ncnc3cc(-c4nc(N)ccc4C(F)(F)F)c(C(C)(F)F)cc23)CC1` [Example 21, 1-(4-(7-(6-amino-3-(trifluoromethyl)pyridin-2-yl)-6-(1,1-difluoroethyl)quinazolin-4-yl)piperazin-1-yl)prop-2-en-1-one] to `C=CC(=O)N1CCN(c2ncnc3cc(-c4nc(N)ccc4C(F)(F)F)c(C4CC4)cc23)CC1` [Example 29, 1-[4-[7-[6-amino-3-(trifluoromethyl)-2-pyridyl]-6-cyclopropyl-quinazolin-4-yl]piperazin-1-yl]prop-2-en-1-one], the EC50 falls from 2800 nM to 830 nM (3.4-fold). The second is the more potent here.

Compared with `C=CC(=O)N1CCC(C#N)(c2ncnc3cc(-c4nc(N)cc(C)c4C(F)(F)F)c(Cl)cc23)CC1` [Example 22, 4-[7-[6-amino-4-methyl-3-(trifluoromethyl)-2-pyridyl]-6-chloro-quinazolin-4-yl]-1-prop-2-enoyl-piperidine-4-carbonitrile], `C=C(F)C(=O)N1CCN(c2ncnc3cc(-c4nc(N)cc(C)c4C(F)(F)F)c(Cl)cc23)CC1` [Example 26, 1-(4-[7-[6-amino-4-methyl-3-(trifluoromethyl)pyridin-2-yl]-6-chloroquinazolin-4-yl]piperazin-1-yl)-2-fluoroprop-2-en-1-one] is 21-fold lower in EC50: 2900 nM for the first, 140 nM for the second.

First: Cc1cc(N)nc(-c2cc3ncnc(N4CCN(C(=O)C5=CCC5)C(C#N)C4)c3cc2Cl)c1C(F)(F)F (stereo not drawn) [Example 23, 4-[7-[6-amino-4-methyl-3-(trifluoromethyl)-2-pyridyl]-6-chloro-quinazolin-4-yl]-1-(cyclobutene-1-carbonyl)piperazine-2-carbonitrile]
Second: Cc1cc(N)nc(-c2cc3ncnc(N4CCN(C(=O)C5CO5)C(C#N)C4)c3cc2Cl)c1C(F)(F)F (stereo not drawn) [Example 24, 4-[7-[6-amino-4-methyl-3-(trifluoromethyl)-2-pyridyl]-6-chloro-quinazolin-4-yl]-1-(oxirane-2-carbonyl)piperazine-2-carbonitrile]
The EC50 of the first is 6.9-fold lower: 910 nM for the first, 6300 nM for the second.

Compared with `C=CC(=O)N1CCN(c2ncnc3cc(-c4nc(N)ccc4C(F)(F)F)c(Cl)cc23)CC1C(F)(F)F` (stereo not drawn) [Example 25, 1-[4-[7-[6-amino-3-(trifluoromethyl)-2-pyridyl]-6-chloro-quinazolin-4-yl]-2-(trifluoromethyl)piperazin-1-yl]prop-2-en-1-one], `C=CC(=O)N1CCN(c2ncnc3cc(-c4nc(N)ccc4OC(F)(F)F)c(Cl)cc23)CC1` [Example 40, 1-(4-[7-[6-amino-3-(trifluoromethoxy)pyridin-2-yl]-6-chloroquinazolin-4-yl]piperazin-1-yl)prop-2-en-1-one] is 3.8-fold lower in EC50: 4200 nM for the first, 1100 nM for the second.

Going from `C=CC(=O)N1CCN(c2ncnc3c(F)c(-c4nc(N)cc5cccc(F)c45)c(Cl)cc23)CC1` [Example 27, 1-[4-[7-(3-amino-8-fluoro-1-isoquinolyl)-6-chloro-8-fluoro-quinazolin-4-yl]piperazin-1-yl]prop-2-en-1-one] to `C=CC(=O)N1CCN(c2ncnc3cc(-c4nc(N)cc(C(F)(F)F)c4C)c(Cl)cc23)CC1` [Example 33, 1-(4-[7-[6-amino-3-methyl-4-(trifluoromethyl)pyridin-2-yl]-6-chloroquinazolin-4-yl]piperazin-1-yl)prop-2-en-1-one], the EC50 rises from 140 nM to 2100 nM (15-fold).

Going from `C=CC(=O)N1CCN(c2nc(C(F)(F)F)nc3cc(-c4nc(N)cc(C)c4C(F)(F)F)c(Cl)cc23)CC1` [Example 30, 1-(4-[7-[6-amino-4-methyl-3-(trifluoromethyl)pyridin-2-yl]-6-chloro-2-(trifluoromethyl)quinazolin-4-yl]piperazin-1-yl)prop-2-en-1-one] to `C=CC(=O)N1CCN(c2nc(C)nc3cc(-c4nc(N)cc(C)c4C(F)(F)F)c(Cl)cc23)CC1` [Example 32, 1-(4-[7-[6-amino-4-methyl-3-(trifluoromethyl)pyridin-2-yl]-6-chloro-2-methylquinazolin-4-yl]piperazin-1-yl)prop-2-en-1-one], the EC50 falls from 7800 nM to 200 nM (39-fold).

Compared with `C=CC(=O)N1CCN(c2ncnc3cc(-c4nc(N)cc(C5CC5)c4C(F)(F)F)c(Cl)cc23)CC1` [Example 34, 1-(4-(7-(6-amino-4-cyclopropyl-3-(trifluoromethyl)pyridin-2-yl)-6-chloroquinazolin-4-yl)piperazin-1-yl)prop-2-en-1-one], `C=CC(=O)N1CCN(c2ncnc3cc(-c4nc(NCC#N)cc5ccccc45)c(Cl)cc23)CC1` [Example 39, 2-[(1-[6-chloro-4-[4-(prop-2-enoyl)piperazin-1-yl]quinazolin-7-yl]isoquinolin-3-yl)amino]acetonitrile] is 2.9-fold higher in EC50: 3400 nM for the first, 10000 nM for the second. The first is the more potent here.
